Data from patent US20260109707A1, “HETEROBIFUNCTIONAL COMPOUNDS AND METHODS OF TREATING DISEASE” (Halda Therapeutics OpCo. Inc., priority 2022, published 2026).
Read-outs that look alike come from different tables or passages of the source.

Key:
[1] = system: T-Rex 293 cell line SC3 cells lacking increased expression of androgen receptor protein; assay: Cellular growth inhibition assay, T-Rex 293 SC3 cells without doxycycline (CellTiter-Glo, 72 hours); type: cell-based; conditions: T-Rex 293 cell line SC3 cells not exposed to doxycycline (lacking increased androgen receptor expression)
Outline: (§1)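 Doxycycline (10 ng/mL) was either included or omitted to toggle wild-type androgen receptor expression in SC3 cells, a T-Rex 293 clone, grown in stripped-serum, phenol red-free medium. After 72 hours with compound, viable cells were quantified by CellTiter-Glo 2.0.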

[2] = system: T-Rex 293 cell line SC3 cells having increased expression of androgen receptor protein due to exposure to doxycycline; assay: Cellular growth inhibition assay, T-Rex 293 SC3 cells with doxycycline (CellTiter-Glo, 72 hours); type: cell-based; conditions: T-Rex 293 SC3 cells with increased androgen receptor expression due to doxycycline (10 ng/mL)
Outline: as §1

[3] = system: VCaP cells; assay: Cellular growth inhibition assay for VCaP cells (CellTiter-Glo, 72 hours); type: cell-based, human
Outline: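 Luminescent viability signal after 72 h of compound exposure gave GI50 values by four-parameter nonlinear regression. Compounds were added in 0.5% DMSO to cells plated 24 h earlier at 5000/well in DMEM containing 10% FBS.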

Structure (SMILES)	GI50 ([3]; Homo sapiens, VCaP, 72 h)	GI50 [3]	GI50 ([1]; 72 h)	GI50 [2]	GI50 [1]	GI50 ([2]; 72 h)
Cc1sc2c(c1C)C(c1ccc(N3CCC4(CCN(c5ccc(C(=O)N[C@H]6CC[C@H](Oc7ccc(C#N)c(Cl)c7)CC6)nn5)C4)C3)cc1F)=N[C@@H](C)c1nnc(C)n1-2 (stereo partly drawn) [I-746]	< 500 nM			< 500 nM	500 to 1500 nM	
Cc1sc2c(c1C)C(c1ccc(N3CC(C4CCN(c5ccc(C(=O)N[C@H]6CC[C@H](Oc7ccc(C#N)c(Cl)c7)CC6)nn5)CC4)C3)cn1)=N[C@@H](C)c1nnc(C)n1-2 [I-464]	< 500 nM		> 3000 nM			< 500 nM
Cc1sc2c(c1C)C(c1ccc(OCC3CC4(CCCN(c5ccc(C(=O)N[C@H]6CC[C@H](Oc7ccc(C#N)c(Cl)c7)CC6)nn5)C4)C3)nc1)=NC1(CC1)c1nnc(C)n1-2 (stereo partly drawn) [I-487]		< 500 nM		< 500 nM	> 3000 nM	
Cc1sc2c(c1C)C(c1ccc(N3CCC4(CCCN(c5ccc(C(=O)N[C@H]6CC[C@H](Oc7ccc(C#N)c(Cl)c7)CC6)nn5)C4)CC3)nc1)=NC1(CC1)c1nnc(C)n1-2 [I-448]	1500 to 3000 nM		> 3000 nM			< 500 nM
CCNC(=O)C[C@@H]1N=C(c2ccc(OC3CC(N(C)C4CCN(c5ccc(C(=O)N[C@H]6CC[C@H](Oc7ccc(C#N)c(Cl)c7)CC6)nn5)CC4)C3)cc2)c2c(sc(C)c2C)-n2c(C)nnc21 (stereo partly drawn) [I-46]	< 500 nM		500 to 1500 nM			< 500 nM
Cc1sc2c(c1C)C(c1ccc(OC3CC4(C3)CC3(CCN(c5ccc(C(=O)N[C@H]6CC[C@H](Oc7ccc(C#N)c(Cl)c7)CC6)nn5)CC3)C4)nc1)=NCc1nnc(C)n1-2 [I-479]	< 500 nM		> 3000 nM			< 500 nM
Cc1sc2c(c1C)C(c1ccc(N3C4CCCC3CC3(CCN(c5ccc(C(=O)N[C@H]6CC[C@H](Oc7ccc(C#N)c(Cl)c7)CC6)nn5)C3)C4)cc1)=N[C@@H](C)c1nnc(C)n1-2 (stereo partly drawn) [I-730]	< 500 nM			< 500 nM	> 3000 nM	
Cc1sc2c(c1C)C(c1ccc(OC3CC4(CCN(c5ccc(C(=O)N[C@H]6CC[C@H](Oc7ccc(C#N)c(Cl)c7)CC6)nn5)CC4)C3)nc1)=NC1(CC1)c1nnc(C)n1-2 [I-443]	< 500 nM		> 3000 nM			< 500 nM
Cc1sc2c(c1C)C(c1ccc(Cl)cc1)=N[C@@H](CC(=O)NCCOCCOCCOCCOCCOCCOCCOC1CCN(c3ccc(C(=O)N[C@H]4CC[C@H](Oc5ccc(C#N)c(Cl)c5)CC4)nn3)CC1)c1nnc(C)n1-2 [I-4, N-[4-(3-chloro-4-cyano-phenoxy)cyclohexyl]-6-[14-[2-[2-[2-[2-[2-[2-[2-[[2-[(9S)-7-(4-chlorophenyl)-4,5,13-trimethyl-3-thia-1,8,11,12-tetrazatricyclo[8.3.0.2,6]trideca-2(6),4,7,10,12-pentaen-9-yl]acetyl]amino]ethoxy]ethoxy]ethoxy]ethoxy]ethoxy]ethoxy]ethoxy]-1-piperidyl]pyridazine-3-carboxamide]	< 500 nM		> 3000 nM			500 to 1500 nM
Cc1sc2c(c1C)C(c1ccc(OC3CC4(CCN(c5ccc(C(=O)N[C@H]6CC[C@H](Oc7ccc(C#N)c(Cl)c7)CC6)nn5)CC4)C3)cn1)=N[C@@H](C)c1nnc(C)n1-2 [I-484]		< 500 nM			500 to 1500 nM	< 500 nM
Cc1sc2c(c1C)C(c1ccc(CCN3[C@H](C)CN(c4ccc(C(=O)N[C@H]5CC[C@H](Oc6ccc(C#N)c(Cl)c6)CC5)nn4)C[C@@H]3C)cc1)=N[C@@H](Cc1ncco1)c1nnc(C)n1-2 [I-466]	< 500 nM		< 500 nM			< 500 nM
COCC[C@@H]1N=C(c2ccc(N3CCC4(CC3)CCN(c3ccc(C(=O)N[C@H]5CC[C@H](Oc6ccc(C#N)c(Cl)c6)CC5)nn3)C4)cc2)c2c(sc(C)c2C)-n2c(C)nnc21 [I-567]	< 500 nM		< 500 nM			< 500 nM
Cc1sc2c(c1C)C(c1ccc(N[C@@H]3CCC[C@H](Nc4ncc(C(=O)N[C@H]5CC[C@H](Oc6ccc(C#N)c(Cl)c6)CC5)cn4)C3)cc1)=NC(Cc1ncco1)c1nnc(C)n1-2 (stereo partly drawn) [I-801]	< 500 nM		< 500 nM			< 500 nM
Cc1sc2c(c1C)C(c1cccc(CC3CC4(CCN(c5ccc(C(=O)N[C@H]6CC[C@H](Oc7ccc(C#N)c(Cl)c7)CC6)nn5)CC4)C3)c1)=N[C@@H](C)c1nnc(C)n1-2 [I-684]	500 to 1500 nM		> 3000 nM			< 500 nM
CCNC(=O)C[C@@H]1N=C(c2ccc(N3CC(N(C4CC4)C4CN(c5ccc(C(=O)N[C@H]6CC[C@H](Oc7ccc(C#N)c(Cl)c7)CC6)nn5)C4)C3)cc2)c2c(sc(C)c2C)-n2c(C)nnc21 [I-56]	< 500 nM		< 500 nM			< 500 nM
Cc1sc2c(c1C)C(c1ccccc1CC1CC3(CCN(c4ccc(C(=O)NC5CCC(Oc6ccc(C#N)c(Cl)c6)CC5)nn4)CC3)C1)=N[C@@H](C)c1nnc(C)n1-2 (stereo partly drawn) [I-690]	< 500 nM		> 3000 nM			> 3000 nM
Cc1sc2c(c1C)C(c1ccc(N3C[C@@]4(C)CN(c5ccc(C(=O)N[C@H]6CC[C@H](Oc7ccc(C#N)c(Cl)c7)CC6)nn5)C[C@@]4(C)C3)cc1)=N[C@@H](Cc1ncco1)c1nnc(C)n1-2 [I-826, 6-[(3aS,6aR)-3a,6a-dimethyl-2-[4-[(9S)-4,5,13-trimethyl-9-(oxazol-2-ylmethyl)-3-thia-1,8,11,12-tetrazatricyclo[8.3.0.02,6]trideca-2(6),4,7,10,12-pentaen-7-yl]phenyl]-1,3,4,6-tetrahydropyrrolo[3,4-c]pyrrol-5-yl]-N-[4-(3-chloro-4-cyano-phenoxy)cyclohexyl]pyridazine-3-carboxamide]	< 500 nM		< 500 nM			< 500 nM
Cc1sc2c(c1C)C(c1ccc(CCC3CC4(CCCN(c5ccc(C(=O)N[C@H]6CC[C@H](Oc7ccc(C#N)c(Cl)c7)CC6)nn5)C4)C3)cn1)N[C@@H](Cc1ncco1)c1nnc(C)n1-2 (stereo partly drawn) [I-644]		< 500 nM		< 500 nM	> 3000 nM	

More lines, main results first:

GI50 ([3]; Homo sapiens, VCaP, 72 h)	GI50 [3]	Structure (SMILES)	GI50 ([1]; 72 h)	GI50 [2]	GI50 [1]	GI50 ([2]; 72 h)
< 500 nM		Cc1sc2c(c1C)C(c1ccc(C3CCC4(CC3)CCN(c3ccc(C(=O)N[C@H]5CC[C@H](Oc6ccc(C#N)c(Cl)c6)CC5)nn3)C4)cc1)=N[C@@H](C)c1nnc(C)n1-2 (stereo partly drawn) [I-494]	< 500 nM	< 500 nM		
	1500 to 3000 nM	Cc1sc2c(c1C)C(c1ccc(C3CCC4(CCN(c5ccc(C(=O)N[C@H]6CC[C@H](Oc7ccc(C#N)c(Cl)c7)CC6)nn5)CC4)C3)cc1)=N[C@@H](C)c1nnc(C)n1-2 (stereo partly drawn) [I-497]		< 500 nM	> 3000 nM	
< 500 nM		Cc1sc2c(c1C)C(c1cccc(CC3CCC4(CC3)CCN(c3ccc(C(=O)N[C@H]5CC[C@H](Oc6ccc(C#N)c(Cl)c6)CC5)nn3)C4)c1)=N[C@@H](C)c1nnc(C)n1-2 (stereo partly drawn) [I-713]		> 3000 nM	> 3000 nM	
< 500 nM		Cc1sc2c(c1C)C(c1ccc(COC3CCC4(C3)CN(c3ccc(C(=O)N[C@H]5CC[C@H](Oc6ccc(C#N)c(Cl)c6)CC5)nn3)CCO4)cc1)=N[C@@H](C)c1nnc(C)n1-2 (stereo partly drawn) [I-557]			< 500 nM	< 500 nM
	1500 to 3000 nM	Cc1sc2c(c1C)C(c1ccc(CC3CCC4(CCCN(c5ccc(C(=O)N[C@H]6CC[C@H](Oc7ccc(C#N)c(Cl)c7)CC6)nn5)C4)C3)cc1)=N[C@@H](C)c1nnc(C)n1-2 (stereo partly drawn) [I-583]		< 500 nM	< 500 nM	
	< 500 nM	Cc1sc2c(c1C)C(c1ccc(C3CCC4(CCN(c5ccc(C(=O)N[C@H]6CC[C@H](Oc7ccc(C#N)c(Cl)c7)CC6)nn5)C4)C3)cc1)=N[C@@H](C)c1nnc(C)n1-2 (stereo partly drawn) [I-823, N-[4-(3-chloro-4-cyano-phenoxy)cyclohexyl]-6-[8-[4-[(9S)-4,5,9,13-tetramethyl-3-thia-1,8,11,12-tetrazatricyclo[8.3.0.02,6]trideca-2(6),4,7,10,12-pentaen-7-yl]phenyl]-2-azaspiro[4.4]nonan-2-yl]pyridazine-3-carboxamide]		< 500 nM	< 500 nM	
< 500 nM		CC[C@@H]1N=C(c2ccc(C3CCC4(CCN(c5ccc(C(=O)N[C@H]6CC[C@H](Oc7ccc(C#N)c(Cl)c7)CC6)nn5)CC4)C3)cc2)c2c(sc(C)c2C)-n2c(C)nnc21 (stereo partly drawn) [I-574]	> 3000 nM			< 500 nM
< 500 nM		COC[C@@H]1N=C(c2ccc(N3CCC4(CC3)CCN(c3ccc(C(=O)N[C@H]5CC[C@H](Oc6ccc(C#N)c(Cl)c6)CC5)nn3)C4)cc2)c2c(sc(C)c2C)-n2c(C)nnc21 [I-566]	< 500 nM			< 500 nM
	< 500 nM	Cc1sc2c(c1C)C(c1ccc(C3CCC4(CCCN(c5ccc(C(=O)N[C@H]6CC[C@H](Oc7ccc(C#N)c(Cl)c7)CC6)nn5)C4)CC3)cc1)=N[C@@H](C)c1nnc(C)n1-2 (stereo partly drawn) [I-674]		< 500 nM	> 3000 nM	
	500 to 1500 nM	Cc1sc2c(c1C)C(c1ccc(COC3CCC4(C3)CN(c3ccc(C(=O)N[C@H]5CC[C@H](Oc6ccc(C#N)c(Cl)c6)CC5)nn3)CCO4)cc1)=N[C@@H](C)c1nnc(C)n1-2 (stereo partly drawn) [I-586]	< 500 nM	< 500 nM		
> 3000 nM		CC[C@@H]1N=C(c2ccc(N3CCC4(CCCN(c5ccc(C(=O)N[C@H]6CC[C@H](Oc7ccc(C#N)c(Cl)c7)CC6)nn5)C4)CC3)cc2)c2c(sc(C)c2C)-n2c(C)nnc21 [I-510]	< 500 nM			< 500 nM
	< 500 nM	Cc1sc2c(c1C)C(c1ccc(CCCC3CCCN(c4ccc(C(=O)N[C@H]5CC[C@H](Oc6ccc(C#N)c(Cl)c6)CC5)nn4)CC3)cc1)=N[C@@H](C)c1nnc(C)n1-2 (stereo partly drawn) [I-670]		< 500 nM	< 500 nM	
